Legend:
Type in all cases: cell-based
[1] = test system: PPARgamma mRNA; assay: PPARgamma mRNA expression during human neutrophil attachment to culture dishes; settings: data taken at 1 and 4 hours; human neutrophils (FIG. 1A)
[2] = test system: Gelatinase B mRNA; assay: Gelatinase B mRNA expression in attached human neutrophils; settings: 1 μM of compound; 4 hours after neutrophil attachment; human neutrophils (FIG. 1B)
Protocol: (FIG. 1B): That the increase in Gelatinase B mRNA expression observed 4 hours after neutrophil attachment was reduced by treatment with 1 μM of Compound (I). Time zero (T0) refers to expression in naive human neutrophils prior to attachment.

[3] = test system: MMP-9 release; assay: Inhibition of MMP-9 release from human neutrophils (human MMP-9 ELISA); settings: Neutrophil, RPMI 1640 plus 1% BSA, 4 hours, 4 individuals, 4-parameter logistic curve fit
Protocol: FIG. 2: Inhibition of MMP-9 release.by Compound (I)
Neutrophils were isolated by countercurrent centrifugal elutriation to a purity of at least 98% and were maintained in RPMI 1640 plus 1% BSA. Cells were cultured in 48 well plates and attached to the wells within 1 hour of plating. Compound (I) (referred to as“BRL49653” in FIG. 2) was included from the beginning of the experiment. After 4 hours the media was removed and a human MMP-9 ELISA assay (Amersham) was performed. Data (from 4 different individuals) were not suitable for pooling directly, so for the purposes of the figure they were normalised to percentage of no compound control. Asterisks denote p<0.05 using a paired Student's t-test performed on the raw data prior to normalisation.

Row | Compound | PPARgamma mRNA during human neutrophil attachment [1] | increase in Gelatinase B mRNA expression after neutrophil attachment [2] | IC50 [3] [nM]
1 | GM-CSF: GM-CSF, treatment that further enhanced PPARgamma mRNA in attached human neutrophils | further enhanced |  | 
2 | CN(CCOc1ccc(CC2SC(=O)NC2=O)cc1)c1ccccn1 (stereo not drawn) [Compound (I), 5-[4-[2-(N-methyl-N-(2-pyridyl)amino)ethoxy]benzyl]thiazolidine-2,4-dione] |  | reduced | 10.6

Reference: patent US20040034067A1, “Novel method of treatment” (priority 1999, published 2004)
